The results in this text go back to US20100273816A1, “Quinazoline Compounds” (priority 2007, published 2010).

In one test the target is T1, human LXRα (Homo sapiens, UniProt Q13133).
T1 construct: biotin (biotinylated); made in house; host or cells: E. coli (crude extract)
T1 sequence (Q13133 1-447): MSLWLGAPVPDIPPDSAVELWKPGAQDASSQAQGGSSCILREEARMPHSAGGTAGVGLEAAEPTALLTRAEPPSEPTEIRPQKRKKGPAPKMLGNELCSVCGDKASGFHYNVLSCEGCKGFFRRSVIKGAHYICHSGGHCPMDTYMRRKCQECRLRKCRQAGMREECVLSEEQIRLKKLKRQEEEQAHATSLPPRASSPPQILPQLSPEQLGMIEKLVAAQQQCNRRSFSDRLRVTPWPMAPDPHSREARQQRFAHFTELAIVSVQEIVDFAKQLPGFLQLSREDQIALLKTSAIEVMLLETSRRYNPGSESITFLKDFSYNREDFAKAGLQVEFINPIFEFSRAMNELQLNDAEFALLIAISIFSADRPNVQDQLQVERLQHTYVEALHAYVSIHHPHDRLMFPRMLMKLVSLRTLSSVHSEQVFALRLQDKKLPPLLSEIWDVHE
Kind of test: Ligand-binding test procedure for human LXRα (3H T0901317 tracer, flash plates). Conditions: biotinylated hLXRα from E. coli extract, +4° C. over night, read-out: hLXRa binding assay Mean IC50. The method, then: II. Ligand-Binding Test Procedure for Human LXRα.
(§1) Buffer: 100 mM KCl, 100 mM TRIS (pH 7.4 at +4° C.), 8.6% glycerol, 0.1 mM PMSF*, 2 mM MTG*, 0.2% CHAPS (* not used in wash buffer)
Receptor source: E. coli extract from cells expressing biotinylated hLXRα. Extract was made in a similar buffer as above, but with 50 mM TRIS.
(§2) Washed streptavidin and coated flash plates with wash buffer.
(§3) Diluted receptor extract to give Bmax ˜4000 cpm and add to the wells.
(§4) Wrapped the plates in aluminum foil and stored them at +4° C. over night.
(§5) Made a dilution series in DMSO of the test ligands.
(§6) Made a 5 nM solution of the radioactive tracer in buffer.
Mixed 250 μl diluted tracer with 5 μl of the test ligand from each concentration of the dilution series.
(§7) Washed the receptor-coated flash plates.
(§8) Added 200 μl per well of the ligand/radiolabel mixture to the receptor-coated flash plates.
(§9) Wrapped the plates in aluminum foil and incubate at +4° C. over night.
(§10) Aspirated wells, and wash the flashed plates. Sealed the plate.
(§11) Measured the remaining radioactivity in the plate.

For a further test, the target named is T2, human LXRβ (Homo sapiens, UniProt P55055).
T2 construct: biotin (biotinylated); made in house; host or cells: E. coli (crude extract)
T2 sequence (P55055 1-460): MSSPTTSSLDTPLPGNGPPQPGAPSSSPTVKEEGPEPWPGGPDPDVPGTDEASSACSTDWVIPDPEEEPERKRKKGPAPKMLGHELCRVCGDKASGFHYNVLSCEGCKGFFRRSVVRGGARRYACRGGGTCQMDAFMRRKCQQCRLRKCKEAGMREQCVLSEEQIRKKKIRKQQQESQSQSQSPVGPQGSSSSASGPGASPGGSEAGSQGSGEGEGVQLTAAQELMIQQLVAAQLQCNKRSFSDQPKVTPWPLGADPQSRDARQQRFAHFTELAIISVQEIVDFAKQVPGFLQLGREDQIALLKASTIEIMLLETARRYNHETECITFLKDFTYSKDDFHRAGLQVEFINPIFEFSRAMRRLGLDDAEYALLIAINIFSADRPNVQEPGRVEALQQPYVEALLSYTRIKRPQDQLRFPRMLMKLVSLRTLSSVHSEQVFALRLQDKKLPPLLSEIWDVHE
In words: Ligand-binding test procedure for human LXRβ (3H T0901317 tracer, flash plates). Conditions: biotinylated hLXRβ from E. coli extract, +4° C. over night, read-out: hLXRB binding assay Mean IC50. The method, then:
I. Ligand-Binding Test Procedure for Human LXRβ.
as §1
Receptor source: E. coli extract from cells expressing biotinylated hLXRβ. Extract was made in a similar buffer as above, but with 50 mM TRIS.
as §2, §3, §4, §5, §6
Mixed 250 μl diluted tracer with 50 of the test ligand from each concentration of the dilution series.
as §7, §8, §9, §10, §11

On to `O=S(=O)(CCCO)c1cccc(Oc2ccc(F)c(-c3ncnc4c(Cl)cccc34)c2)c1` [Example 73, 3-({3-[3-(8-chloroquinazolin-4-yl)-4-fluorophenoxy]phenyl}sulfonyl)propan-1-ol], for which the IC50 on human LXRα was 2.52 µM; at human LXRβ it was 0.182 µM.

`CS(=O)(=O)c1cccc(Oc2ccc(F)c(-c3ncnc4c(Cl)cccc34)c2)c1` [Example 75, 8-chloro-4-{2-fluoro-5-[3-(methylsulfonyl)phenoxy]phenyl}quinazoline]: the results for the IC50 at human LXRα and at human LXRβ were 0.718 µM and 0.02 µM, respectively.

With `CS(=O)(=O)c1cccc(-c2cccc(-c3nc(C4CC4)nc4c(C(F)(F)F)cccc34)c2)c1` [Example 76, 2-cyclopropyl-4-[3′-(methylsulfonyl)biphenyl-3-yl]-8-(trifluoromethyl)quinazoline], the results for the IC50 on human LXRα and at human LXRβ were 0.714 µM and 0.153 µM, respectively.

As for `COc1cccc2c(-c3cc(Oc4cccc(S(C)(=O)=O)c4)ccc3Cl)ncnc12` [Example 77, 4-{2-chloro-5-[3-(methylsulfonyl)phenoxy]phenyl}-8-methoxyquinazoline], the values for the IC50 on human LXRα and on human LXRβ were 10.4 µM and 0.344 µM, respectively.

For the molecule `CS(=O)(=O)c1cccc(Oc2ccc(Cl)c(-c3ncnc4c(Cl)cccc34)c2)c1` [Example 78, 8-chloro-4-{2-chloro-5-[3-(methylsulfonyl)phenoxy]phenyl}quinazoline], the IC50 at human LXRα stood at 0.325 µM; at human LXRβ, 0.026 µM.

With `O=S(=O)(CCCO)c1cccc(Oc2ccc(F)c(-c3ncnc4c(C(F)(F)F)cccc34)c2)c1` [Example 93, 3-[(3-{4-fluoro-3-[8-(trifluoromethyl)quinazolin-4-yl]phenoxy}phenyl)sulfonyl]propan-1-ol], the IC50 on human LXRα stood at 0.714 µM; at human LXRβ it was 0.047 µM.

In general, IC50 refers to the concentration that inhibits the measured activity by half.
